Test system: CD14 expression
Test: Induction of CD14 expression in THP-1 cells (FITC-labeled anti-CD14 antibody, flow cytometry)
Format: cell-based, human
Settings: VD3 about 100 nM, 3 days, 10,000 cells, 40 where no VD3 was added
Description: Human monocytic THP-1 cells (purchased from Dainippon Pharmaceutical Co., Ltd.) were used as cells. As a culture medium, RPMI medium 1640 with L-glutamine (RPMI; GIBCO Co.), to which inactivated fetal calf serum (GIBCO Co.) at a concentration of 10% (v/v) and penicillin-streptomycin involving penicillin G sodium and streptomycin sulfate at a concentration of 100 U/ml and 100 µg/ml respectively, were added. For induction of CD14 expression, the cells were suspended in the medium at a content of about 3 × 10^5 cells/ml, to which 1,25-dihydroxyvitamin D3 (VD3; Roussel-UCLAF S.A.) was added at a final concentration of about 100 nM. The cells were incubated in the presence of 5% CO2 in a CO2 incubator MODEL 6200-03 (National Appliance Company) at 37°C for 3 days. The cultured cells were suspended into PBS at 10^6 cells/ml, to which FITC-labeled anti-human CD14 monoclonal antibody clone. UCHM1 (Ancell Co.) was added at a concentration of 1.6 µg/ml. The mixture was incubated at 4°C for 1 hour. The cells were washed 3 times with PBS by centrifugation (1,000 rpm, 3 minutes, 20°C), suspended into 1,000 µl of PBS, and filtered through a tube with a filter (FALCON2235 (Becton Dickinson Co.)). For the resulting cell suspension, the amount of the FITC-labeled anti-CD14 antibody bound to 10,000 cells was determined using a flow cytometer Cyto ACE-300 (JASCO Coporation). […]

C=C1/C(=C\C=C2/CCC[C@]3(C)[C@@H]([C@H](C)CCCC(C)(C)O)CC[C@@H]23)C[C@@H](O)C[C@@H]1O [VD3, 1,25-dihydroxyvitamin D3]
mean fluorescence intensity (MFI) of bound FITC-labeled anti-CD14 antibody: 114.9

From EP1134289A1, “METHOD FOR SCREENING CD14 AGONIST OR ANTAGONIST” (Takeda Chemical Industries, Ltd., priority 1998, dated 2000)
